In patent US20140142113A1 (priority 2012, published 2014):

How the values were obtained:
[1] = Pharmacokinetics of Compound 1 in mice, oral or intravenous; format: in vivo; details: C57BLK6 mice
Method: The cellulose formulation was administered to C57BLK6 mice orally. The serum suspension/solution was administered intravenously. […] The results are recorded in FIG. 5.

[2] = test system: experimental autoimmune encephalomyelitis; experiment: Experimental autoimmune encephalomyelitis (EAE) in mice; format: in vivo; details: C57B/6 mice, 15 mg/kg i.p. once daily from EAE induction
Method: Control mice were treated with PEG/saline (triangles). […] Data are the mean plotted with the standard error of the mean.
EAE is a widely used animal model for multiple sclerosis (MS).
EAE was induced in C57B/6 mice by subcutaneous immunization with 100 ug/mouse myelin oligodendrocyte glycoprotein (MOG) peptide 35-55 emulsified in compete Freund's adjuvant (CFA) containing 2 mg/ml heat-killed mycobacterium tuberculosis H37Ra (Hooke Laboratories). As part of the induction protocol, mice were also injected intraperitoneally on the day of immunization and 48 hours later with 0.1 ml of 4 [mu]g/mL Bordetella pertusis toxin. Severity of EAE was determined daily based on a standard scoring system: 1, tail weakness or paralysis; 2, hind leg weakness; 3, hind limb paralysis; 4, forelimb weakness; and 5, moribund animals or death.

hA2B adenosine receptor = target: T1, hA2B adenosine receptor (Homo sapiens, UniProt P29275); experiment: Adenosine receptor selectivity, hA2B; format: binding; details: read-out: hA2B IC50 ± SEM
T1 sequence (P29275 1-332): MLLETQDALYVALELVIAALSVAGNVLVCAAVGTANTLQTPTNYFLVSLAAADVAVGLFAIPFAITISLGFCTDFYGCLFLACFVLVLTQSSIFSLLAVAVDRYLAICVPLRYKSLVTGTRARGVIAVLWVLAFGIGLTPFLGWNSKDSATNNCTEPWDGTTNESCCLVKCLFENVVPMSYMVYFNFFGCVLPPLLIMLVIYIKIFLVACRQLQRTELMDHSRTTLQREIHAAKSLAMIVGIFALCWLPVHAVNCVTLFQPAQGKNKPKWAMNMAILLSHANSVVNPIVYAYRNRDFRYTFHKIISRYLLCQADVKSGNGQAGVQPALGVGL
From the text: (§1) The selectivity of these substances at various adenosine receptors is illustrated as follows: […]

[3] = test system: collagen-induced arthritis; experiment: Collagen induced arthritis (CIA) in mice; format: in vivo; details: DBA/1 mice, 30 mg/kg i.p. once daily
Method: Control mice were treated with saline (circles). Data are the mean arthritis paw thickness, assessed using a calliper in the days following primary immunization and boost.
After the end of treatment, the inhibitory effect was maintained for a period of 2-3 days after which signs began to re-emerge.
Treatment of rheumatoid arthritis using Collagen Induced Arthritis as a model Collagen-induced arthritis studies. CIA in DBA/1 mice was induced by injecting DBA/1 mice with bovine type Il collagen (CII) emulsified in CFA1 followed by boosting 21 days later with CII emulsified in incomplete Freund's adjuvant (IFA). […] 30 mg/kg was delivered by i.p. injection once daily, starting following the development of clinical arthritis in treatment experiments. Animals were monitored daily following boost of arthritis, following the emergence of clear signs of disease observed on two consecutive days, animals were allocated randomly to treatment groups. Signs monitored included weight loss, paw thickness, and observed clinical score. Scoring is according to the presence of inflamed joints: 1 point for an inflamed digit, 1 point for a inflamed metatarsus, and 1 point for an inflamed joint above the metatarsus.

hA3 adenosine receptor = target: T2, hA3 adenosine receptor (Homo sapiens, UniProt P0DMS8); experiment: Adenosine receptor selectivity, hA3; format: binding; details: read-out: hA3 Ki ± SEM
T2 sequence (P0DMS8 1-318): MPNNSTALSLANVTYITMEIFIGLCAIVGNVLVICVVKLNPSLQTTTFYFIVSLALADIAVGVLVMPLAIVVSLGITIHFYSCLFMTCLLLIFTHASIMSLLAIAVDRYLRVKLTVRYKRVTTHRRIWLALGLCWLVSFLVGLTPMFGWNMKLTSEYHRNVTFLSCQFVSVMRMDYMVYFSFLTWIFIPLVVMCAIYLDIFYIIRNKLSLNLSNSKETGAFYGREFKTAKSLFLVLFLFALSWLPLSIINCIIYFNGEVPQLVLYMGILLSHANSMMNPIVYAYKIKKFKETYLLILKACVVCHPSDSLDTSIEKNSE
From the text: as §1

rA1 adenosine receptor = target: T3, rA1 adenosine receptor (Rattus norvegicus, UniProt P25099); experiment: Adenosine receptor selectivity, rA1; format: binding; details: read-out: rA1 Ki ± SEM
T3 sequence (P25099 1-326): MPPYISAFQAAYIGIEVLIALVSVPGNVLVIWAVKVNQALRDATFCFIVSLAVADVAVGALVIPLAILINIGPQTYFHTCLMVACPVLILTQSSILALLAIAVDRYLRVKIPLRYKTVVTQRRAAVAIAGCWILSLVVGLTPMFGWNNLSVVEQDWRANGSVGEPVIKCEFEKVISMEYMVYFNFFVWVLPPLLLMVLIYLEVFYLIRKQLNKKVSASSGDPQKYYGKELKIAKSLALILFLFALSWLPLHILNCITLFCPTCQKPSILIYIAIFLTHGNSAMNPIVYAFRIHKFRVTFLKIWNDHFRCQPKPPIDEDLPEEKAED
From the text: as §1

rA2A adenosine receptor = rA2A adenosine receptor (Rattus norvegicus, UniProt P30543); experiment: Adenosine receptor selectivity, rA2A; format: binding; details: read-out: rA2A Ki ± SEM
From the text: as §1

rA2A adenosine receptor, sequence (P30543 whole entry): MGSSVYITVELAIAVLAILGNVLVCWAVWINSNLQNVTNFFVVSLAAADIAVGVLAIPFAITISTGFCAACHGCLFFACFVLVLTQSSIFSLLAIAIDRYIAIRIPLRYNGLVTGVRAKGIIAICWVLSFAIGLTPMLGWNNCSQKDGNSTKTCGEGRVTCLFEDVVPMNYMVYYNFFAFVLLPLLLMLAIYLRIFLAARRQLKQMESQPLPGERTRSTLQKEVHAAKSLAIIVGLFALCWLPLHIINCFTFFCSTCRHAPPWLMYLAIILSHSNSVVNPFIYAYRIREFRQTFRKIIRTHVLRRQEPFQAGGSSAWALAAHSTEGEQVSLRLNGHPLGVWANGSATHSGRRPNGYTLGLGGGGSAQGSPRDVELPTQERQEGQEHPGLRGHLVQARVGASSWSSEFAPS

IC50 (hA2B adenosine receptor) | Ki (hA3 adenosine receptor) | Ki (rA1 adenosine receptor) | Ki (rA2A adenosine receptor) | SMILES | also measured
0.002 ± 0.001 µM |  | 0.463 ± 0.122 µM | 1.54 ± 0.271 µM | CCCn1c(=O)[nH]c2nc(-c3ccc(S(=O)(=O)N4CCN(Cc5ccc(C(F)(F)F)cc5)CC4)cc3)[nH]c2c1=O [Compound 2] | 
0.002 ± 0.001 µM |  | 0.509 ± 0.155 µM | 0.499 ± 0.129 µM | CCn1c(=O)[nH]c2nc(-c3ccc(S(=O)(=O)N4CCN(Cc5cccc(C(F)(F)F)c5)CC4)cc3)[nH]c2c1=O [Compound 3] | 
0.002 ± 0.0001 µM |  | 0.178 ± 0.038 µM | 0.799 ± 0.358 µM | CCCn1c(=O)[nH]c2nc(-c3ccc(S(=O)(=O)N4CCN(Cc5cccc(Cl)c5)CC4)cc3)[nH]c2c1=O [Compound 4] | 
0.003 ± 0.0002 µM |  | 0.111 ± 0.043 µM | 0.782 ± 0.236 µM | CCCn1c(=O)[nH]c2nc(-c3ccc(S(=O)(=O)N4CCN(Cc5cccc(F)c5)CC4)cc3)[nH]c2c1=O [Compound 5] | 
0.005 ± 0.002 µM | < 10 µM | 0.054 ± 0.005 µM | 0.332 ± 0.129 µM | CCn1c(=O)[nH]c2nc(-c3ccc(S(=O)(=O)N4CCN(Cc5ccc6c(c5)OCO6)CC4)cc3)[nH]c2c1=O [Ethyl-/3,4-(Methylen-dioxy)benzyl-] | 
0.004 ± 0.003 µM | > 10 µM | 0.142 ± 0.006 µM | 0.514 ± 0.041 µM | CCn1c(=O)[nH]c2nc(-c3ccc(S(=O)(=O)N4CCN(c5ccccc5)CC4)cc3)[nH]c2c1=O [Ethyl-/Phenyl-] | 
0.005 ± 0.001 µM | < 10 µM | 0.129 ± 0.041 µM | 0.63 ± 0.305 µM | CCn1c(=O)[nH]c2nc(-c3ccc(S(=O)(=O)N4CCN(Cc5ccc(OC)cc5)CC4)cc3)[nH]c2c1=O [Ethyl-/p-Methoxybenzyl-] | 
0.011 ± 0.003 µM | < 10 µM |  | 0.154 ± 0.0449 µM | CCCn1c(=O)[nH]c2nc(-c3ccc(S(=O)(=O)N4CCN(CCc5ccccc5)CC4)cc3)[nH]c2c1=O [Propyl-/2-(Phenyl)ethyl-] | 
0.024 ± 0.01 µM | 4.15 µM | 0.079 ± 0.005 µM | 0.59 ± 0.029 µM | CCCn1c(=O)[nH]c2nc(-c3ccc(S(=O)(=O)N4CCN(Cc5ccc6c(c5)OCO6)CC4)cc3)[nH]c2c1=O [Propyl-/3,4-(Methylen-dioxy)benzyl-] | 
0.01 ± 0.002 µM | > 10 µM | 0.151 ± 0.038 µM | 0.848 ± 0.433 µM | CCCn1c(=O)[nH]c2nc(-c3ccc(S(=O)(=O)N4CCN(Cc5ccccc5)CC4)cc3)[nH]c2c1=O [Propyl-/Benzyl-] | 
0.004 ± 0.0002 µM |  | 0.273 ± 0.047 µM | 1.7 ± 0.217 µM | CCCn1c(=O)[nH]c2nc(-c3ccc(S(=O)(=O)N4CCN(Cc5cccc(C(F)(F)F)c5)CC4)cc3)[nH]c2c1=O [Propyl-/m-Trifluormethylbenzyl-] | 
0.004 ± 0.001 µM |  | 0.386 ± 0.098 µM | 1.73 ± 0.79 µM | CCCn1c(=O)[nH]c2nc(-c3ccc(S(=O)(=O)N4CCN(Cc5ccc(Cl)cc5)CC4)cc3)[nH]c2c1=O [Propyl-/p-Chlorbenzyl-] | 
0.016 ± 0.006 µM |  | 0.084 ± 0.019 µM | 1.02 ± 0.561 µM | CCCn1c(=O)[nH]c2nc(-c3ccc(S(=O)(=O)N4CCN(Cc5ccc(OC)cc5)CC4)cc3)[nH]c2c1=O [Propyl-/p-Methoxybenzyl-] | 

SMILES | IC50 (hA2B adenosine receptor) | Ki (hA3 adenosine receptor) | Ki (rA1 adenosine receptor) | Ki (rA2A adenosine receptor) | also measured
CCCn1c(=O)[nH]c2nc(-c3ccc(S(=O)(=O)N4CCN(c5ccc(Cl)cc5)CC4)cc3)[nH]c2c1=O [Compound 1] | 0.001 ± 0.0004 µM | > 10 µM |  |  | detectability in blood by route ([1]; oral or intravenous route): detectable only via injection; oral availability ([1]; oral, 1% methyl cellulose in water, 0.2% Tween 80): not orally available; half-life ([1]; whole blood, iv, i.v. application in mouse serum, read-out: terminal half life): 1 to 2 h; onset of EAE compared to control mice ([2]; 15 mg/kg): delayed onset such that there were no signs of EAE; onset of EAE compared to control mice ([2]; listed as compound 1, 15 mg/kg): a delay in the onset of EAE; effect on existing inflammation in CIA ([3]; established arthritis): able to reduce an existing inflammation to a normal state; severity of CIA (paw swelling, erythema, joint rigidity; mean visual arthritis score) ([3]; started after development of clinical arthritis): significant reductions in the severity of CIA
